Here are results for 24 compounds from patent US10981894B2, “Melanocortin subtype-2 receptor (MC2R) antagonists and uses thereof” (Crinetics Pharmaceuticals, Inc., priority 2018, dated 2021).

In this assay the target is hMC2 receptor (Homo sapiens, UniProt Q01718). In words: hMC2 membrane binding assay ([125I]ACTH (1-39) Tyr23, SPA). Also noted: scale not given here. The settings on record: crude hMC2R membranes from CRE-bla-CHO-K1 cells expressing hMC2 receptor and hMRAP; [125I]ACTH (1-39) Tyr23 0.2 nM; 1.5 hours at room temperature; read-out: MC2R binding potency. The procedure, abridged:
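Ki comes from non-linear regression of SPA scintillation counts. Displacement of 0.2 nM [125I]ACTH(1-39) Tyr23 by compound dose series (usually 0–10,000 nM final) ran 1.5 h at room temperature. Membranes came from CHO-K1 CRE-bla cells stably expressing hMC2R plus hMRAP, bead-coupled in pH 7.4 buffer with 0.2% BSA.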

Chain of hMC2 receptor (Q01718 whole entry): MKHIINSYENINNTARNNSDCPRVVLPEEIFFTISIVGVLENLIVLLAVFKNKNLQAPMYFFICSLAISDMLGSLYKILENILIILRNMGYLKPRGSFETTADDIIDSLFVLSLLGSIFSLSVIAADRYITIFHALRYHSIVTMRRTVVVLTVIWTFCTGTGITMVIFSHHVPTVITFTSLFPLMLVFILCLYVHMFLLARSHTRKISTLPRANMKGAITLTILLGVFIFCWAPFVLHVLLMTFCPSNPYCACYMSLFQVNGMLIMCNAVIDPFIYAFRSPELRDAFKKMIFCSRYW
Chain of hMC2 receptor (Q8TCY5 whole entry partner): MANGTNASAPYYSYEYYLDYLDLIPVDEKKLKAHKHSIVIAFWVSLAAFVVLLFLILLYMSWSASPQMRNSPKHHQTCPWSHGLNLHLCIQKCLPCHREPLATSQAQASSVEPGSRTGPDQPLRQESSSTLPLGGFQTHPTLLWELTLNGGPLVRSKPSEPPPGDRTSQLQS

Consider `CC[C@@H]1CN(C(=O)c2ccc(C(F)(F)F)cc2Cl)CCN1c1ccc(-c2ccccc2C)cc1C(=O)NCCN` [Compound 1-8, N-(2-aminoethyl)-4-[(2R)-4-[2-chloro-4-(trifluoromethyl)benzoyl]-2-ethylpiperazin-1-yl]-2′-methyl-[1,1′-biphenyl]-3-carboxamide], for which the Ki lay within 0.01 to 0.1 µM.

`CCOc1ccccc1-c1ccc(N2CCN(C(=O)N3CCC[C@H]3C(F)(F)F)C[C@H]2CC)c(C(=O)NC[C@@H]2CCN2C)n1` [Compound 1-387, 6-(2-ethoxyphenyl)-3-[(2R)-2-ethyl-4-[(2S)-2-(trifluoromethyl)pyrrolidine-1-carbonyl]piperazin-1-yl]-N-{[(2S)-1-methylazetidin-2-yl]methyl}pyridine-2-carboxamide]: the Ki is less than 0.01 µM.

For `CCOc1ncccc1-c1ccc(N2CCN(C(=O)c3ccc(Cl)cc3N3CC[C@H](N(C)C)C3)C[C@H]2CC)c(C(=O)N[C@@H]2CCNC2)c1` [Compound 1-115, 2-[(2R)-4-{4-chloro-2-[(3S)-3-(dimethylamino)pyrrolidin-1-yl]benzoyl}-2-ethylpiperazin-1-yl]-5-(2-ethoxypyridin-3-yl)-N-[(3R)-pyrrolidin-3-yl]benzamide], the Ki was less than 0.01 µM.

As for `CCOc1ncccc1-c1ccc(N2CCN(C(=O)c3ccc(Cl)cc3C(F)(F)F)C[C@H]2CC)c(C(=O)NCC2=NCCN2)n1` [Compound 1-226, 5-[(2R)-4-[4-chloro-2-(trifluoromethyl)benzoyl]-2-ethylpiperazin-1-yl]-N-[(4,5-dihydro-1H-imidazol-2-yl)methyl]-2′-ethoxy-[2,3′-bipyridine]-6-carboxamide], the Ki was less than 0.01 µM.

As for `CCOc1ccc(C(=O)N2CCN(c3ccc(-c4cccnc4OC)nc3C(=O)NC3CN(C)C3)[C@H](CC)C2)c(C(F)(F)F)n1` [Compound 1-247, 5-[(2R)-4-[6-ethoxy-2-(trifluoromethyl)pyridine-3-carbonyl]-2-ethylpiperazin-1-yl]-2′-methoxy-N-(1-methylazetidin-3-yl)-[2,3′-bipyridine]-6-carboxamide], the Ki is less than 0.01 µM.

Take `CCOc1ncccc1-c1ccc(N2CCN(C(=O)N3CCc4cc(F)cc(C#N)c43)C[C@H]2CC)c(C(=O)NC2CN(C)C2)n1` [Compound 1-422, 5-[(2R)-4-(7-cyano-5-fluoro-2,3-dihydro-1H-indole-1-carbonyl)-2-ethylpiperazin-1-yl]-2′-ethoxy-N-(1-methylazetidin-3-yl)-[2,3′-bipyridine]-6-carboxamide]: the Ki was less than 0.01 µM.

Regarding `CCOc1ncccc1-c1ccc(N2CCN(C(=O)c3ccc(F)cc3N3CCC(CN)C3)C[C@H]2CC)c(C(=O)NCCN)c1` (stereo partly drawn) [Compound 1-51, N-(2-aminoethyl)-2-[(2R)-4-{2-[3-(aminomethyl)pyrrolidin-1-yl]-4-fluorobenzoyl}-2-ethylpiperazin-1-yl]-5-(2-ethoxypyridin-3-yl)benzamide], the Ki was less than 0.01 µM.

Consider `CCOc1ccccc1-c1ccc(N2CCN(C(=O)n3ccc4cc(F)cc(C#N)c43)C[C@H]2CC)c(C(=O)N[C@@H]2CCN(C)C2)n1` [Compound 1-439, 3-[(2R)-4-(7-cyano-5-fluoro-1H-indole-1l-carbonyl)-2-ethylpiperazin-1-yl]-6-(2-ethoxyphenyl)-N-[(3R)-1-methylpyrrolidin-3-yl]pyridine-2-carboxamide], for which the Ki is less than 0.01 µM.

Regarding `CCOc1ncccc1-c1ccc(N2CCN(C(=O)c3ccc(Cl)cc3C(F)F)C[C@H]2CC)c(C(=O)N[C@@H]2CCN(C)C2)n1` [Compound 1-262, 5-[(2R)-4-[4-chloro-2-(difluoromethyl)benzoyl]-2-ethylpiperazin-1-yl]-2′-ethoxy-N-[(3R)-1-methylpyrrolidin-3-yl]-[2,3′-bipyridine]-6-carboxamide], the Ki is less than 0.01 µM.

On to `CCOc1ccccc1-c1ccc(N2CCN(C(=O)n3ccc4cccc(C#N)c43)C[C@H]2CC)c(C(=O)N[C@@H]2CCN(C)C2)n1` [Compound 1-432, 3-[(2R)-4-(7-cyano-1H-indole-1-carbonyl)-2-ethylpiperazin-1-yl]-6-(2-ethoxyphenyl)-N-[(3R)-1-methylpyrrolidin-3-yl]pyridine-2-carboxamide], for which the Ki is less than 0.01 µM.

For the compound `CCOc1ccccc1-c1ccc(N2CCN(C(=O)C3(CC(F)(F)F)CCC3)C[C@H]2CC)c(C(=O)N[C@@H]2CCN(C)C2)n1` [Compound 1-349, 6-(2-ethoxyphenyl)-3-[(2R)-2-ethyl-4-[1-(2,2,2-trifluoroethyl)cyclobutanecarbonyl]piperazin-1-yl]-N-[(3R)-1-methylpyrrolidin-3-yl]pyridine-2-carboxamide], the Ki is less than 0.01 µM.

Consider `CCOc1ncccc1-c1ccc(N2CCN(C(=O)c3ccc(Cl)cc3C(F)(F)F)C[C@H]2CC)c(C(=O)N[C@@H]2CCNC2)n1` [Compound 1-151, 5-[(2R)-4-[4-chloro-2-(trifluoromethyl)benzoyl]-2-ethylpiperazin-1-yl]-2′-ethoxy-N-[(3R)-pyrrolidin-3-yl]-[2,3′-bipyridine]-6-carboxamide], for which the Ki is less than 0.01 µM.

With `CCOc1ncccc1-c1ccc(N2CCN(C(=O)c3ccc(F)cc3C(F)(F)F)C[C@H]2CC)c(CNCCNC)c1` [Compound 2-21, {[5-(2-ethoxypyridin-3-yl)-2-[(2R)-2-ethyl-4-[4-fluoro-2-(trifluoromethyl)benzoyl]piperazin-1-yl]phenyl]methyl}[2-(methylamino)ethyl]amine], the Ki is less than 0.01 µM.

Turning to `CCOc1ncccc1-c1ccc(N2CCN(C(=O)c3ccc(Cl)cc3C(F)(F)F)C[C@H]2CC)c(C(=O)N[C@@H]2CCNC2)c1` [Compound 1-45, 2-[(2R)-4-[4-chloro-2-(trifluoromethyl)benzoyl]-2-ethylpiperazin-1-yl]-5-(2-ethoxypyridin-3-yl)-N-[(3R)-pyrrolidin-3-yl]benzamide], the Ki is less than 0.01 µM.

Regarding `CC[C@@H]1CN(C(=O)c2ccc(Cl)cc2C(F)(F)F)CCN1c1ccc(-c2cccnc2OC)cc1C(=O)NCCN` [Compound 1-71, N-(2-aminoethyl)-2-[(2R)-4-[4-chloro-2-(trifluoromethyl)benzoyl]-2-ethylpiperazin-1-yl]-5-(2-methoxypyridin-3-yl)benzamide], the Ki is less than 0.01 µM.

Take `CCOc1ccccc1-c1ccc(N2CCN(C(=O)c3ccc(OC)nc3C(F)(F)F)C[C@H]2CC)c(C(=O)N[C@@H]2CCNC2)n1` [Compound 1-254, 6-(2-ethoxyphenyl)-3-[(2R)-2-ethyl-4-[6-methoxy-2-(trifluoromethyl)pyridine-3-carbonyl]piperazin-1-yl]-N-[(3R)-pyrrolidin-3-yl]pyridine-2-carboxamide]: the Ki is less than 0.01 µM.

With `CCOc1ncccc1-c1ccc(N2CCN(C(=O)c3ccc(F)cc3Cl)C[C@H]2CC)c(C(=O)N[C@@H]2CCNC2)c1F` [Compound 1-73, 6-[(2R)-4-(2-chloro-4-fluorobenzoyl)-2-ethylpiperazin-1-yl]-3-(2-ethoxypyridin-3-yl)-2-fluoro-N-[(3R)-pyrrolidin-3-yl]benzamide], the Ki was less than 0.01 µM.

Consider `CCOc1ncccc1-c1ccc(N2CCN(C(=O)OC3(CC)CCCC3)C[C@H]2CC)c(C(=O)N[C@@H]2CCN(C)C2)n1` [Compound 1-397, 1-ethylcyclopentyl (3R)-4-(2′-ethoxy-6-{[(3R)-1-methylpyrrolidin-3-yl]carbamoyl}-[2,3′-bipyridin]-5-yl)-3-ethylpiperazine-1-carboxylate], for which the Ki was less than 0.01 µM.

For `CCOc1ccccc1-c1ccc(N2CCN(C(=O)N3CCc4cccc(C#N)c43)C[C@H]2CC)c(C(=O)N[C@@H]2CCN(C)C2)n1` [Compound 1-393, 3-[(2R)-4-(7-cyano-2,3-dihydro-1H-indole-1-carbonyl)-2-ethylpiperazin-1-yl]-6-(2-ethoxyphenyl)-N-[(3R)-1-methylpyrrolidin-3-yl]pyridine-2-carboxamide], the Ki is less than 0.01 µM.

Turning to `CCOc1ncccc1-c1ccc(N2CCN(C(=O)c3ccc(F)cc3N3CC[C@H](NC)C3)C[C@H]2CC)c(C(=O)N[C@@H]2CCNC2)c1` [Compound 1-101, 5-(2-ethoxypyridin-3-yl)-2-[(2R)-2-ethyl-4-{4-fluoro-2-[(3S)-3-(methylamino)pyrrolidin-1-yl]benzoyl}piperazin-1-yl]-N-[(3R)-pyrrolidin-3-yl]benzamide], the Ki is less than 0.01 µM.

As for `CCOc1ncccc1-c1ccc(N2CCN(C(=O)C3(CC(F)F)CCC3)C[C@H]2CC)c(C(=O)N[C@@H]2CCNC2)n1` [Compound 1-328, 5-[(2R)-4-[1-(2,2-difluoroethyl)cyclobutanecarbonyl]-2-ethylpiperazin-1-yl]-2′-ethoxy-N-[(3R)-pyrrolidin-3-yl]-[2,3′-bipyridine]-6-carboxamide], the Ki was less than 0.01 µM.

`CCOc1ccccc1-c1ccc(N2CCN(C(=O)c3ccc(Cl)cc3C(F)F)C[C@H]2CC)c(C(=O)N[C@@H]2CCN(C)C2)n1` [Compound 1-287, 3-[(2R)-4-[4-chloro-2-(difluoromethyl)benzoyl]-2-ethylpiperazin-1-yl]-6-(2-ethoxyphenyl)-N-[(3R)-1-methylpyrrolidin-3-yl]pyridine-2-carboxamide]: the Ki was less than 0.01 µM.

Turning to `CCOc1ncccc1-c1ccc(N2CCN(C(=O)c3ccc(Cl)cc3Cl)C[C@H]2CC)c(C(=O)NCCNC)c1F` [Compound 1-156, 6-[(2R)-4-(2,4-dichlorobenzoyl)-2-ethylpiperazin-1-yl]-3-(2-ethoxypyridin-3-yl)-2-fluoro-N-[2-(methylamino)ethyl]benzamide], the Ki was less than 0.01 µM.

For the compound `CCOc1ncccc1-c1ccc(N2CCN(C(=O)c3ccc(Cl)cc3C#N)C[C@H]2CC)c(C(=O)NCCN)c1` [Compound 1-117, N-(2-aminoethyl)-2-[(2R)-4-(4-chloro-2-cyanobenzoyl)-2-ethylpiperazin-1-yl]-5-(2-ethoxypyridin-3-yl)benzamide], the Ki was less than 0.01 µM.
